{"source": "patent US5274002A", "about": "“Trisubstituted phenyl analogs having activity for congestive heart failure” (Warner-Lambert Company, priority 1990, dated 1993)", "key": {"[1]": {"tested_on": "isolated Langendorff rat heart", "assay": "isolated Langendorff rat heart (CVIH), coronary flow", "settings": "In Vitro Langendorf Isolated Rat Heart, constant perfusion pressure 70 mm Hg, 37° C.; for EC25: read-out: EC 25 (Coronary Flow); for pEC50: read-out: EC 50 (Coronary Flow)", "procedure": "TEST FOR INOTROPIC, CHRONOTROPIC, AND VASCULAR ACTIVITIES IN THE ISOLATED LANGENDORFF RAT HEART (CVIH)\nMale rats (400-600 gms) are pretreated with 2000 units Na heparin (Parke-Davis) and anesthetized with Na pentobarbital (50 mg/kg, Butler Co.) administered intraperitoneally. Once anesthetized, the rat heart is rapidly excised, the ascending aorta fitted to the aortic perfusion cannula, and secured with a ligature. The coronary arteries were perfused initially at a rate of about 15 ml/min for two to three minutes, after which they are perfused at constant pressure of 70 mm Hg and temperature of 37° C. The electrocardiogram (ECG) is recorded using two platinum electrodes positioned at the base and apex of the left ventricle. A second heart is excised, cannulated, and perfused by the same method outlined above. Both hearts are tested in parallel. The standard physiological salt solution (PSS) is a modified Krebs-Hanseleit bicarbonate buffer of the following composition in mM concentration: NaCl, 127; NaHCO3, 25; dextrose, 5.5; Na Pyruvate, 2.0; KCl, 4.7;MgSO4, 1.1; KH2 PO4, 1.2; CaCl2 ·2H2O, 2.5; CaNa2 EDTA, 0.05.\nA 30-minute stabilization period is observed before starting the test protocol.\nMicroprocessor Controlled Coronary Perfusion and Drug Delivery System\nThe microprocessor control system is a servo mechanism which permits coronary perfusion pressure (CPP) and drug concentration to be maintained constant independent of changes in coronary flow. The level at which CPP and drug concentration are maintained can be changed by commands communicated through the microprocessor keyboard. Dose-response curves are carried out by perfusing a solution at a specified drug concentration (DC) at rates proportional to total coronary flow (CFT). Drug concentrations are increased by proportionate increases in the rate of DC infusion over CFT via the microprocessor keyboard. The proportional flow rates for DC:CFT is about 0.0002:1 at the low end and 0.02:1 at the high end of the dose-response curve. Dose-response curves encompassing at least two log doses are carried out by preparing two DCs with a concentration difference of 1:100. Following the first dose range of two log doses, the DC is switched, proportional pumping rate adjusted, and the dose-response curve continued for another two log doses. The standard dose-response curve is carried out in one-half log dose increments starting at a subthreshold dose and ending at a dose which produces near maximal response in activity. Standard reference compounds are tested over the range of 10^-9 to 10^-6 M.\nMeasurements are for coronary flow (CF). Units are: CF, milliliters/minute (ml/min). CF is calculated by recording analog outputs from pumps 1 and 2. Outputs from pump #1=CFT and the output from pump #2=CF for heart B (CFB) CF for heart A (CFA) is calculated (CFT -CFB =CFA).\nUsing the above coronary blood flow evaluation technique, the effects of the compounds of each indicated example is shown as the EC (effective concentration) 25/(effective concentration) EC 50."}, "anesthetized dog": {"tested_on": "anesthetized dog", "assay": "in vivo myocardial inotropic activity in the anesthetized dog", "settings": "1.0 mg/kg, change from control data prior to dosing", "procedure": "TEST FOR IN VIVO MYOCARDIAL INOTROPIC ACTIVITY IN THE ANESTHETIZED DOG\nAdult mongrel dogs of either sex are anesthetized with pentobarbital, 35 mg/kg, IV, and are maintained under anesthesia with a continuous infusion of pentobarbital, 3.5 mg/kg/hr. The trachea is intubated, but the animals are permitted to breathe spontaneously. A cannula is inserted into the femoral vein for administering test agents. A Millar catheter tip pressure transducer or a fluid filled catheter is inserted into the ascending aorta via the femoral artery for measuring pressure. A Millar catheter tip pressure transducer is passed into the left ventricle via the left carotid artery for measuring left ventricular blood pressure. Needle electrodes are placed subcutaneously for recording a lead II electrocardiogram. Before administering test agents, control data is acquired over a period of at least thirty minutes.\nThe test agent is dissolved in dimethylacetamide. Each dose is administered in a volume of 0.5 ml over a period of one minute. Appropriate vehicle controls are also administered.\nWhen tested by this protocol, representative compounds of formula I, when administered at a dose of 1 mg/kg, produced an increase in contractility, a minimal increase in blood pressure, and an increase in heart rate as shown in the following Table B."}}, "note": "pEC50: −log10 of the molar value.", "data": [{"smiles": "COc1ccc(CCCO)cc1OC1CCCC1", "note": "[Example 19, 3-(3-Cyclopentoxy-4-methoxyphenyl)-n-1-propanol]", "values": [{"measurement": "EC25", "setting": "[1]", "result": 2, "unit": "µM"}, {"measurement": "pEC50", "setting": "[1]", "result": 5.15}, {"measurement": "Blood Pressure, percent increase (+) or decrease (-) from control data", "setting": "anesthetized dog", "result": "+9%"}, {"measurement": "Contractility, percent increase (+) or decrease (-) from control data", "setting": "anesthetized dog", "result": "+91%"}, {"measurement": "Heart Rate, percent increase (+) or decrease (-) from control data", "setting": "anesthetized dog", "result": "+25%"}]}, {"smiles": "COC(=O)/C=C/c1ccc(OC)c(OC2CCCC2)c1", "note": "[Example 3, Methyl 3-(3-cyclopentoxy-4-methoxyphenyl)-E-propenoate]", "values": [{"measurement": "EC25", "setting": "[1]", "result": 2, "unit": "µM"}, {"measurement": "pEC50", "setting": "[1]", "result": "< 3.30"}, {"measurement": "Blood Pressure, percent increase (+) or decrease (-) from control data", "setting": "anesthetized dog", "result": "+16%"}, {"measurement": "Contractility, percent increase (+) or decrease (-) from control data", "setting": "anesthetized dog", "result": "+77%"}, {"measurement": "Heart Rate, percent increase (+) or decrease (-) from control data", "setting": "anesthetized dog", "result": "+20%"}]}, {"smiles": "COc1ccc(CCC(=O)O)cc1OC1CCCC1", "note": "[Example 13, 3-(3-Cyclopentoxy-4-methoxyphenyl)-n-propanoic acid]", "values": [{"measurement": "EC25", "setting": "[1]", "result": 4, "unit": "µM"}, {"measurement": "pEC50", "setting": "[1]", "result": 4.82}, {"measurement": "Blood Pressure, percent increase (+) or decrease (-) from control data", "setting": "anesthetized dog", "result": "+9%"}, {"measurement": "Contractility, percent increase (+) or decrease (-) from control data", "setting": "anesthetized dog", "result": "+47%"}, {"measurement": "Heart Rate, percent increase (+) or decrease (-) from control data", "setting": "anesthetized dog", "result": "+23%"}]}, {"smiles": "COc1ccc(CCC(N)=O)cc1OC1CCCC1", "note": "[Example 16, 3-(3-Cyclopentoxy-4-methoxyphenyl)-n-propionyl amide]", "values": [{"measurement": "EC25", "setting": "[1]", "result": 3, "unit": "µM"}, {"measurement": "pEC50", "setting": "[1]", "result": 5.00}, {"measurement": "Blood Pressure, percent increase (+) or decrease (-) from control data", "setting": "anesthetized dog", "result": "+5%"}, {"measurement": "Contractility, percent increase (+) or decrease (-) from control data", "setting": "anesthetized dog", "result": "+127%"}, {"measurement": "Heart Rate, percent increase (+) or decrease (-) from control data", "setting": "anesthetized dog", "result": "+25%"}]}, {"smiles": "COc1ccc(/C=C/C=O)cc1OC1CCCC1", "note": "[Example 21, 3-(3-Cyclopentoxy-4-methoxyphenyl)-E-propene-1-aldehyde]", "values": [{"measurement": "EC25", "setting": "[1]", "result": 1.1, "unit": "µM"}, {"measurement": "pEC50", "setting": "[1]", "result": 5.70}, {"measurement": "Blood Pressure, percent increase (+) or decrease (-) from control data", "setting": "anesthetized dog", "result": -1, "unit": "%"}, {"measurement": "Contractility, percent increase (+) or decrease (-) from control data", "setting": "anesthetized dog", "result": "+62%"}, {"measurement": "Heart Rate, percent increase (+) or decrease (-) from control data", "setting": "anesthetized dog", "result": "+35%"}]}, {"smiles": "COC(=O)CCc1ccc(OC)c(OC2CCCC2)c1", "note": "[Example 9, Methyl 3-(3-cyclopentoxy-4-methoxyphenyl)-n-propionate]", "values": [{"measurement": "EC25", "setting": "[1]", "result": 15, "unit": "µM"}, {"measurement": "pEC50", "setting": "[1]", "result": 4.66}, {"measurement": "Blood Pressure, percent increase (+) or decrease (-) from control data", "setting": "anesthetized dog", "result": "+5%"}, {"measurement": "Contractility, percent increase (+) or decrease (-) from control data", "setting": "anesthetized dog", "result": "+36%"}, {"measurement": "Heart Rate, percent increase (+) or decrease (-) from control data", "setting": "anesthetized dog", "result": "+41%"}]}]}
